Assay results reported in patent publication US6653344B2, “Pharmaceutical preparations containing a dibenzocyclooctane lignan derivative for treatment of neurodegenerative disease” (Elcom Bio Technology Co., Ltd., priority 2000, dated 2003).

Tested on: MDA content in glutamate-injured primary cultured rat cortical cells
Experiment: Measurement of malondialdehyde (MDA) content, lipid peroxidation
Type: cell-based
Details: for Protection (MDA content, lipid-peroxidation) / MDA: compound 1 µM for 1 hr before 100 µM glutamate, 24 hr; for MDA: control 70.2, glutamate-treated 198.2
Procedure: Cells were collected by adding 0.1M potassium phosphate buffer (pH 7.4) to culture-broth-removed remainings from first cultured cortical cells. The collected cells were treated by supersonic wave for 20 seconds and were centrifuged at 4° C. with 3,000 g for 20 minutes to obtain the supernatant.
To 500 μl of cell supernatant, 500 μl of 10% trichroroacetic acid(TCA) was added and leaved for 10 minutes. The precipitated protain was removed by using centrifuge. To the supernatant, final concentration of 0.2% of thiobarbituric acid is added to prepare 1 ml of solution and reacted at 100° C. for 1 hour. Adsorption was measured at 535 nm and converted and obtained by comparing the contents of MDA with 1,1,3,3-tetraethoxypropane as standard. (Yagi K A, 1976, Simple fluorometric assay for lipoperoxide in blood plasma, Biochem Med 15: 212-216).
NO which is over-formed by glutamate and superoxide anion are each combined to form peroxynitrite. (Almeida et al. 1998). Such formed peroxynitrite with free radical which is formed by glutamate toxicity induce oxidative stress on neurons and induce lipid-peroxidation of cells. Wuweizusu C suppressed 67% of lipid-peroxidation induced by glutamate.
Rat cortical cultures were treated with compounds at the concentration of 1 M for 1 hr before exposure to 100 M glutamate and then maintained for 24 hr. Values given represent the mean SD (n=3).

Row | SMILES | suppression of lipid-peroxidation induced by glutamate (in words) | Protection (MDA content, lipid-peroxidation) [%] | MDA [nmol/mg protein] | Protection (MDA content, lipid-peroxidation) (listed as Wuweizusu C) [%]
1 | COc1cc2c(c(OC)c1OC)-c1c(cc(OC)c(OC)c1OC)C[C@H](C)[C@H](C)C2 [Deoxyschizandrin, deoxyschizandrin] | significantly suppressed | 49.2 | 135.4 ± 10.7 | –
2 | COc1cc2c(c(OC)c1OC)-c1c(cc3c(c1OC)OCO3)C[C@H](C)[C@H](C)C2 [Gomisin N, gomisin N] | significantly suppressed | 57.0 | 125.6 ± 11.1 | –
3 | COc1c2c(cc3c1-c1c(cc4c(c1OC)OCO4)C[C@H](C)[C@H](C)C3)OCO2 [Wuweizisu C, wuweizisu C] | – | 68.7 | 110.5 ± 9.0 | 67
